What was measured:
[1] = test system: BIM, Mcl-1 and BMF mRNA in vemurafenib-resistant melanoma cell lines; experiment: Quantitative real-time PCR; settings: M229R; 3 μM, 48 hours
RPMI 7951 = experiment: Growth inhibition, MTT assay; format: cell-based; settings: Homo sapiens, RPMI 7951 (overexpression of COT), 72 hours
Protocol: (§1) Growth inhibition. Cells were plated at a density of 2.5×10^4 cells per ml and left to grow overnight before being treated with increasing concentrations of vemurafenib or XL888. After 72 hours, the levels of growth inhibition were examined using the MTT assay (Smalley et al., Br. J. Cancer 96:445-9 (2007)). […] Vemurafenib and XL888 were dissolved in 100% DMSO and stored at −20° C. as a 10 mM solution.
(§2) Statistical analysis of GI50 values. Triplicate experiments were performed for each cell line under each drug treatment. To estimate the IC50 values for each cell line for each treatment, a 4-parameter Hill equation was used to model the nonlinear sigmoid relationship between the drug concentration and % cell survival. Briefly,
(§3) where x is the drug concentration, y is the % survival, ε is the error term. The four parameters in the model to estimate are: 1) the control-level effect (E); 2) the background-level effect (B); 3) the median effect concentration (GI50); and 4) the strength of the inhibition (m). The constraint of non-negative minimum background effect (B) is imposed so the model is biologically meaningful. Levenberg-Marquardt algorithm for nonlinear least squares was used to fit the model and estimate all four parameters for each cell line under each treatment. Estimated concentration at 50% cell survival, i.e., IC50, is estimated using the plugged-in parameters after model fitting. Note that when the control and background effects are 100% and 0%, respectively, the estimated GI50 and IC50 values would be identical. To compare the estimated IC50 values between the resistance and naïve paired of cell lines, after log transformation, a paired t-test was performed for each drug.

WM39 = experiment: Growth inhibition, MTT assay; format: cell-based; settings: WM39 (amplification of cyclin D1), 72 hours
Protocol: as §1, §2, §3

[2] = test system: matched pairs of vemurafenib naïve and resistant melanoma cell lines and melanoma cell lines with intrinsic resistance; experiment: Growth inhibition, MTT assay; format: cell-based; settings: M229/M229R, M249/M249R, WM164/WM164R, 1205Lu/1205LuR; paired t-test
Protocol: as §1, §2, §3

Cn1cnc2c(F)c(Nc3ccc(Br)cc3Cl)c(C(=O)NOCCO)cc21 [MEK inhibitor]
BMF expression [1]: robust induction of BMF expression

CCCS(=O)(=O)Nc1ccc(F)c(C(=O)c2c[nH]c3ncc(-c4ccc(Cl)cc4)cc23)c1F [vemurafenib, N-(3-{[5-(4-chlorophenyl)-1H-pyrrolo[2,3-b]pyridin-3-yl]carbonyl}-2,4-difluorophenyl)propane-1-sulfonamide]
IC50 (RPMI 7951): > 3 µM
IC50 (WM39): > 3 µM
difference in growth inhibition / IC50 between naïve and resistant pairs of cell lines [2]: statistically significant difference in the extent of growth inhibition
